Assay results: ChEMBL document CHEMBL1141304, “Julichrome Q6 glucuronide, a monomeric subunit of the julimycin B-I complex from a terrestrial Streptomyces sp” (J Nat Prod, 2007)
Activity calls are given as the source filed them.

Experiments:
Assay type in all cases: functional, organism-based
Escherichia coli = assay: Antimicrobial activity against Escherichia coli at 40 ug after 24 hrs by agar diffusion method
Staphylococcus aureus = assay: Antimicrobial activity against Staphylococcus aureus at 40 ug after 24 hrs by agar diffusion method
[1] = test system: Streptomyces viridochromogenes; assay: Antimicrobial activity against Streptomyces viridochromogenes at 40 ug after 24 hrs by agar diffusion method
Bacillus subtilis = assay: Antimicrobial activity against Bacillus subtilis at 40 ug after 24 hrs by agar diffusion method
Candida albicans = assay: Antimicrobial activity against Candida albicans at 40 ug after 24 hrs by agar diffusion method
Chlorella vulgaris = assay: Antimicrobial activity against Chlorella vulgaris at 40 ug after 24 hrs by agar diffusion method
Chlorella sorokiniana = assay: Antimicrobial activity against Chlorella sorokiniana at 40 ug after 24 hrs by agar diffusion method
Desmodesmus subspicatus = assay: Antimicrobial activity against Scenedesmus subspicatus at 40 ug after 24 hrs by agar diffusion method

Measured: Activity

CC(=O)O[C@H](C)[C@@H]1c2cc3cccc(O[C@@H]4O[C@H](C(=O)O)[C@@H](O)[C@H](O)[C@H]4O)c3c(O)c2C(=O)C[C@]1(C)O
inactive: all assays above
